Source: publication PMC6353076, “Impact of CodY protein on metabolism, sporulation and virulence in Clostridioides difficile ribotype 027” (PLoS ONE, 2019)

Target: T1, CdCodY GAF domain (Clostridioides difficile, UniProt Q18BE1)
T1 construct: gene codY; N-terminal GAF domain, CdCodY(1-156); six molecules in the asymmetric unit
Assay: X-ray crystal structure, […] A
Format: binding
Conditions: GAF-domain effector pocket; contacts N40, Y42, D60, S62, F74, F101, E104, K110, S130

T1 sequence (Q18BE1 entry or part of it): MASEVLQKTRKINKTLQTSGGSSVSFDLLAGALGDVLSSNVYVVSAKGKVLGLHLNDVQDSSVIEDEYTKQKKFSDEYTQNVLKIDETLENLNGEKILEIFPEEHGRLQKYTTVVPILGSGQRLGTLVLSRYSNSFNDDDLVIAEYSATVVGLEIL

CC[C@H](C)[C@H](N)C(=O)O [isoleucine]
X-ray crystal structure, 1.7 A: The crystal structure of the GAF domain of CdCodY bound to isoleucine was solved
